Bounds are passed on as bounds.

Experiment [1] deals with T1, Human KIF18A (amino acid sequence 1-417) (Homo sapiens, UniProt Q8NI77).
T1 construct: purchased Viva Biotech (Shanghai) Ltd
Description: Enzyme activity detection experiment (ADP-Glo, KIF18A with tubulin and ATP). It counts as biochemical. The note with it: tubulin 60 μg/mL, ATP 25 μM, KIF18A protein 2.5 nM, 120 minutes at ambient temperature, ADP-Glo chemiluminescence. Here is the method: Materials: Human KIF18A (amino acid sequence 1-417) was obtained from Viva Biotech (Shanghai) Ltd., and the ADP-Glo™ protein kinase kit was acquired from Promega, USA. Tubulin was sourced from Cytoskeleton, USA, while a 384-well assay plate and the Envision multifunctional microplate reader were obtained from PerkinElmer, USA.
Enzyme activity detection: The compound powder in DMSO was firstly dissolved to prepare a 10 mM stock solution. Next, gradient dilutions were prepared in the microplate to achieve final concentrations of […]. Sequentially, 2.5 μL of tubulin (60 μg/mL), the compound, ATP (25 μM), and KIF18A protein (2.5 nM) were added to each well, and the reaction was incubated at ambient temperature for 120 minutes. After the reaction, 10 μL of ADP-Glo™ reagent was added to each well and incubated at ambient temperature for 30 minutes. Subsequently, 20 μL of detection reagent was added to each well and incubated for an additional 30 minutes in the dark. Finally, chemiluminescence detection was performed using the PerkinElmer Envision multifunctional microplate reader.

The test system of the next experiment is OVCAR3 cells. Description: Cell proliferation activity test, OVCAR3 (CyQUANT Direct). The note with it: Homo sapiens, OVCAR-3, 72 h, 3 days incubation, CyQUANT fluorescence detection, read-out: OVCAR-3 Cell Viability_IC50_nM. Type of experiment: cell-based. Here is the method: Materials and Cells: OVCAR3 cells were purchased from Nanjing Cobioer Biosciences Co., Ltd. RPMI-1640 medium, fetal bovine serum, and the CyQUANT Direct Cell Proliferation Assay kit were purchased from Thermo Fisher Scientific, USA; 96-well cell culture plates were sourced from Corning, USA.
Cell Culture: Culture OVCAR3 cells with RPMI-1640 medium containing […] and incubate them in a […] incubator at 37° C. Only cells in the logarithmic growth phase can be used for the test.
Inoculate OVCAR3 cells into a 96-well cell culture plate at 90 μL per well and incubate overnight in a […] incubator at 37° C. Dissolve the compound powder in DMSO to prepare a stock solution of 10 mM. Then perform gradient dilution for the compounds in the microplate to achieve a final concentration of 0-10 μM. Add 10 μL of cell culture medium containing compounds to each well to make the final DMSO content 0.20%. Incubate the cell plates in a […] incubator at 37° C. for 3 days. Add 100 μL of CyQUANT detection reagent to each well, react at 37° C. for 60 min, and perform fluorescence detection using the PerkinElmer Envision.

T1 sequence (Q8NI77 1-417): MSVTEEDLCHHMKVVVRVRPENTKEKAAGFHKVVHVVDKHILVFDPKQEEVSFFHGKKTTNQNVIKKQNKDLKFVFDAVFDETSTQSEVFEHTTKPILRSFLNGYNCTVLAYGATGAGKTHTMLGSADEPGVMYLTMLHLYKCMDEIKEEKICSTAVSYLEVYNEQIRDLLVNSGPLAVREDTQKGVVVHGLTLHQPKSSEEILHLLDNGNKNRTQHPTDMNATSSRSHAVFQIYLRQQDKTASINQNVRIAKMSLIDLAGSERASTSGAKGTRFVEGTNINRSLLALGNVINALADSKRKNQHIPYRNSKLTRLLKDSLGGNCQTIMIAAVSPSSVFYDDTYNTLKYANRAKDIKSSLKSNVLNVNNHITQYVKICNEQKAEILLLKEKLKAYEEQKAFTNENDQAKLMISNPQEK
T1 sequence (Q2XVP4 whole entry partner): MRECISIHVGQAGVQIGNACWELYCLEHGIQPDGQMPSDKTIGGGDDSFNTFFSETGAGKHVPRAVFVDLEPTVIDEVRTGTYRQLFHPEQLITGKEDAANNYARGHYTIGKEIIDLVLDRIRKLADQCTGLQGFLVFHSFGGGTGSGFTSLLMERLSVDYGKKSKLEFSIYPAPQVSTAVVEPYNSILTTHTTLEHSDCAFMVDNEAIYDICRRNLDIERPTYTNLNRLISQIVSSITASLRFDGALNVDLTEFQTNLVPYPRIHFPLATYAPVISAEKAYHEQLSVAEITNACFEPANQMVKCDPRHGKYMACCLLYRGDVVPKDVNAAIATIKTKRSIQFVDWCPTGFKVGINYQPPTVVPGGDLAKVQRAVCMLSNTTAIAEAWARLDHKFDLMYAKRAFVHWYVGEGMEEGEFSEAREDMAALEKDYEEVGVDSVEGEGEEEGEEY
T1 sequence (P02554 whole entry partner): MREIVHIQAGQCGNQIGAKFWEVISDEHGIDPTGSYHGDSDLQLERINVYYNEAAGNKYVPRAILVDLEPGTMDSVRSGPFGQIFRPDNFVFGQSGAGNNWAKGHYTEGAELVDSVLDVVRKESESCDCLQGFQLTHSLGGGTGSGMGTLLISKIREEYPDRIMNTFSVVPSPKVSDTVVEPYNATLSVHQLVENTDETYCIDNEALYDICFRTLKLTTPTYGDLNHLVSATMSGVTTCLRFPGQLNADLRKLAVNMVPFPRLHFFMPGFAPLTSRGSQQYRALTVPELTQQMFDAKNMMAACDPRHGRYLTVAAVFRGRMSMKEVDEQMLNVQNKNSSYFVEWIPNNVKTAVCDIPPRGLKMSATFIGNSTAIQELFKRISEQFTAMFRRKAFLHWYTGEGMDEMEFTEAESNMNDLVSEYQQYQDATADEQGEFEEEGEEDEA

Take `Cc1cc(-c2cc(-c3ccc(NS(=O)(=O)CCO)cc3N3CCC4(CC3)CC4)on2)nc(N2CCC(F)(F)CC2)n1` [Example 5, N-(4-(3-(2-(4,4-difluoropiperidin-1-yl)-6-methylpyrimidin-4-yl)isoxazol-5-yl)-3-(6-azaspiro[2.5]octan-6-yl)phenyl)-2-hydroxyethane-1-sulfonamide]: the IC50 in experiment [1] is 1050 nM; with OVCAR3 cells, 389 nM.

`Cc1cc(-c2cc(-c3ccc(NS(=O)(=O)CCO)cc3N3CCC4(CC3)CC4)n[nH]2)nc(N2CCC(F)(F)CC2)n1` [Example 6, N-(4-(5-(2-(4,4-difluoropiperidin-1-yl)-6-methylpyrimidin-4-yl)-1H-pyrazol-3-yl)-3-(6-azaspiro[2.5]octan-6-yl)phenyl)-2-hydroxyethane-1-sulfonamide]: the IC50 in experiment [1] amounted to 1090 nM; with OVCAR3 cells, 257 nM.

For the compound `Cc1cc(-c2cn(-c3ccc(NS(=O)(=O)CCO)cc3N3CCC4(CC3)CC4)nn2)nc(C2=COCCO2)n1` [Example 38, N-(4-(4-(2-(5,6-dihydro-1,4-dioxin-2-yl)-6-methylpyrimidin-4-yl)-1H-1,2,3-triazol-1-yl)-3-(6-azaspiro[2.5]octan-6-yl)phenyl)-2-hydroxyethane-1-sulfonamide], the figures for the IC50 (in experiment [1]; in the experiment on OVCAR3 cells) were 452 nM and 424 nM, respectively.

As for `Cc1cc(-c2cn(-c3ccc(NS(=O)(=O)CCO)cc3N3CCC4(CC3)CC4)nn2)nc(C2COCCO2)n1` (stereo not shown) [Example 40, N-(4-(4-(2-(1,4-dioxan-2-yl)-6-methylpyrimidin-4-yl)-1H-1,2,3-triazol-1-yl)-3-(6-azaspiro[2.5]octan-6-yl)phenyl)-2-hydroxyethane-1-sulfonamide], the IC50 in experiment [1] is more than 3000 nM; with OVCAR3 cells, 411 nM.

Turning to `Cc1cc(-c2cn(-c3ccc(NS(=O)(=O)CCO)cc3N3CCC4(CC3)CC4)nn2)nc(N2CC3CC2CO3)n1` (stereo not shown) [Example 47, N-(4-(4-(2-(2-oxa-5-azabicyclo[2.2.1]heptan-5-yl)-6-methylpyrimidin-4-yl)-1H-1,2,3-triazol-1-yl)-3-(6-azaspiro[2.5]octan-6-yl)phenyl)-2-hydroxyethane-1-sulfonamide], the figures for the IC50 (in experiment [1]; in the experiment on OVCAR3 cells) were 64 nM and 37 nM, respectively.

As for `Cc1ccc2cc(-c3cn(-c4ccc(NS(=O)(=O)CCO)cc4N4CCC5(CC4)CC5)nn3)c(F)c(N3CCC(F)(F)CC3)c2n1` [Example 75, N-(3-{6-azaspiro[2.5]octan-6-yl}-4-{4-[8-(4,4-difluoropiperidin-1-yl)-7-fluoro-2-methylquinolin-6-yl]-1H-1,2,3-triazol-1-yl}phenyl)-2-hydroxyethane-1-sulfonamide], the IC50 was more than 3000 nM in experiment [1] and 300 nM in the experiment with OVCAR3 cells.

Consider `O=S(=O)(CCO)Nc1ccc(-n2cc(-c3cc(OCCO)nc(N4CCC(F)(F)CC4)n3)nn2)c(N2CCC3(CC2)CC3)c1` [Example 95, N-(3-{6-azaspiro[2.5]octan-6-yl}-4-{4-[2-(4,4-difluoropiperidin-1-yl)-6-(2-hydroxyethoxy)pyrimidin-4-yl]-1H-1,2,3-triazol-1-yl}phenyl)-2-hydroxyethane-1-sulfonamide], for which the IC50 in experiment [1] was 73 nM; with OVCAR3 cells, 7 nM.

`O=S(=O)(CCO)Nc1ccc(-n2cc(-c3cc(OC4CCOC4)nc(N4CCC(F)(F)CC4)n3)nn2)c(N2CCC3(CC2)CC3)c1` (stereo not shown) [Example 96, N-(3-{6-azaspiro[2.5]octan-6-yl}-4-{4-[2-(4,4-difluoropiperidin-1-yl)-6-(oxolan-3-yloxy)pyrirmidin-4-yl]-1H-1,2,3-triazol-1-yl}phenyl)-2-hydroxyethane-1-sulfonamide] showed an IC50 in experiment [1] of 117 nM.

Take `O=S(=O)(CCO)Nc1ccc(-n2cc(-c3cc(OCC4CCOC4)nc(N4CCC(F)(F)CC4)n3)nn2)c(N2CCC3(CC2)CC3)c1` (stereo not shown) [Example 97, N-(3-(6-azaspiro[2.5]octan-6-yl)-4-{4-[2-(4,4-difluoropiperidin-1-yl)-6-[(oxolan-3-yl)methoxy]pyrimidin-4-yl]-1-1,2,3-triazol-1-yl}phenyl)-2-hydroxyethane-1-sulfonamide]: the IC50 in experiment [1] amounted to 234 nM.

Compound `CCC(CO)S(=O)(=O)Nc1ccc(-n2cc(-c3cc(C)nc(N4CCC(F)(F)CC4)n3)nn2)c(N2CCC3(CC2)CC3)c1` (stereo not shown) [Example 98, N-(3-{6-azaspiro[2.5]octan-6-yl}-4-{4-[2-(4,4-difluoropiperidin-1-yl)-6-methylpyrimidin-4-yl]-1H-1,2,3-triazol-1-yl}phenyl)-1-hydroxybutane-2-sulfonamide] yielded an IC50 in experiment [1] of 154 nM.

Compound `C[C@H](CO)S(=O)(=O)Nc1ccc(-n2cc(-c3cc(N4CCC(F)(F)CC4)c4ncccc4c3)nn2)c(N2CCC3(CC2)CC3)c1` [Example 99, (2R)—N-(3-(6-azaspiro[2.5]octan-6-yl)-4-{4-[8-(4,4-difluoropiperidin-1-yl)quinolin-6-yl]-1H-1,2,3-triazol-1-yl}phenyl)-1-hydroxypropane-2-sulfonamide] returned an IC50 in experiment [1] of 214 nM.

In experiment [1], `C[C@@H](CO)S(=O)(=O)Nc1ccc(-n2cc(-c3cc(N4CCC(F)(F)CC4)c4ncccc4c3)nn2)c(N2CCC3(CC2)CC3)c1` [Example 100, (2S)—N-(3-{6-azaspiro[2.5]octan-6-yl}-4-{4-[8-(4,4-difluoropiperidin-1-yl)quinolin-6-yl]-1H-1,2,3-triazol-1-yl}phenyl)-1-hydroxypropane-2-sulfonamide] gave an IC50 of 187 nM.

In experiment [1], `CC(C)(CO)S(=O)(=O)Nc1ccc(-n2cc(-c3cc(N4CCC(F)(F)CC4)c4ncccc4c3)nn2)c(N2CCC3(CC2)CC3)c1` [Example 101, N-(4-(4-(8-(4,4-difluoropiperidin-1-yl)quinolin-6-yl)-1H-1,2,3-triazol-1-yl)-3-(6-azaspiro[2.5]octan-6-yl)phenyl)-1-hydroxy-2-methylpropane-2-sulfonamide] showed an IC50 of 320 nM.

Take `COc1cc(-c2nnc(-c3ccc(NS(=O)(=O)C(C)CO)cc3N3CCC4(CC3)CC4)o2)cc(N2CCC(F)(F)CC2)n1` (stereo not shown) [Example 102, N-(4-(5-(2-(4,4-difluoropiperidin-1-yl)-6-methoxypyridin-4-yl)-1,3,4-oxadiazol-2-yl)-3-(6-azaspiro[2.5]octan-6-yl)phenyl)-1-hydroxypropane-2-sulfonamide]: the IC50 in experiment [1] was found to be 60 nM.

`Cc1cc(-c2nnc(-c3ccc(NS(=O)(=O)C(C)CO)cc3N3CCC4(CC3)CC4)o2)cc(N2CCC(F)(F)CC2)n1` (stereo not shown) [Example 103, N-(4-(5-(2-(4,4-difluoropiperidin-1-yl)-6-methylpyridin-4-yl)-1,3,4-oxadiazol-2-yl)-3-(6-azaspiro[2.5]octan-6-yl)phenyl)-1-hydroxypropane-2-sulfonamide] yielded an IC50 in experiment [1] of 73 nM.

For `Cc1cc(-c2nnc(-c3ccc(NS(=O)(=O)C(C)(C)CO)cc3N3CCC4(CC3)CC4)o2)cc(N2CCC(F)(F)CC2)n1` [Example 104, N-(4-(5-(2-(4,4-difluoropiperidin-1-yl)-6-methylpyridin-4-yl)-1,3,4-oxadiazol-2-yl)-3-(6-azaspiro[2.5]octan-6-yl)phenyl)-1-hydroxy-2-methylpropane-2-sulfonamide], in experiment [1], the IC50 turned out to be 83 nM.

`COc1cc(-c2nnc(-c3ccc(NS(=O)(=O)C(C)(C)CO)cc3N3CCC4(CC3)CC4)o2)cc(N2CCC(F)(F)CC2)n1` [Example 105, N-(4-(5-(2-(4,4-difluoropiperidin-1-yl)-6-methoxypyridin-4-yl)-1,3,4-oxadiazol-2-yl)-3-(6-azaspiro[2.5]octan-6-yl)phenyl)-1-hydroxy-2-methylpropane-2-sulfonamide] yielded an IC50 in experiment [1] of 62 nM.

On to `Cc1cc2nc(-c3ccc(NS(=O)(=O)CCO)cc3N3CCC4(CC3)CC4)[nH]c2c(N2CCC(F)(F)CC2)n1` [Example 106, N-(4-(4-(4,4-difluoropiperidin-1-yl)-6-methyl-3H-imidazo[4,5-c]pyridin-2-yl)-3-(6-azaspiro[2.5]octan-6-yl)phenyl)-2-hydroxyethane-1-sulfonamide], for which the IC50 in experiment [1] worked out at 210 nM.

Source of the values: patent US20250304551A1 (SHANGHAI APEIRON THERAPEUTICS COMPANY LIMITED, priority 2022, published 2025).
